Measurements from the NIST ThermoML archive (doi:10.1021/je900915p).

Tests used:
[1] = 298.15 K, 101.33 kPa, Liquid; for viscosity: Capillary tube (Ostwald / Ubbelohde) method
[2] = mn = molality of the nth substance listed, in mol/kg; conditions: 298.15 K, 101 kPa, Liquid; for speed of sound: Pulse-echo method
[3] = xn = mol fraction of the nth substance listed; conditions: 298.15 K, 101 kPa, Liquid; for viscosity: Capillary tube (Ostwald / Ubbelohde) method

N#CCCCCC#N [hexanedinitrile]
[1]
Conditions	mass density [kg/m3]	viscosity [mPa·s]
–	975.26	5.99

Cc1ccc2ccc3ccc(C)nc3c2n1.Cc1ccc2ccc3ccc(C)nc3c2n1.[Cu+2].[O-][Cl+3]([O-])([O-])[O-].[O-][Cl+3]([O-])([O-])[O-] [bis-(2,9-dimethyl-1,10-phenanthroline) copper perchlorate] + CC#N
[2]
Conditions	mass density [kg/m3]	speed of sound [m/s]
m1 = 0.02474	792.91	1273.2
m1 = 0.03841	801.84	1274.5
m1 = 0.05937	815.69	1275.9
m1 = 0.08169	830.27	1277.3
m1 = 0.1218	857.14	1279.7

CC#N [acetonitrile] + N#CCCCCC#N
[3], x1 = 1
Conditions	mass density [kg/m3]	viscosity [mPa·s]
–	776.85	0.341

CC#N.CC#N.CC#N.CC#N.[Cu+].[O-][Cl+3]([O-])([O-])[O-] [tetraacetonitrile copper perchlorate] + CC#N
[2]
Conditions	mass density [kg/m3]	speed of sound [m/s]
m1 = 0.02538	787.25	1272.1
m1 = 0.03962	793.19	1273.7
m1 = 0.0589	801.28	1275
m1 = 0.08537	812.53	1276.7
m1 = 0.1254	828.76	1278.5

N#CCCCCC#N [hexanedinitrile] + CC#N
[3]
Conditions	mass density [kg/m3]	viscosity [mPa·s]
x2 = 0.5	892.51	1.61
x2 = 0.6	880	1.41
x2 = 0.7	870	1.057
x2 = 0.8	848.59	0.684
x2 = 0.9	818.58	0.506

CCCC[N+](CCCC)(CCCC)CCCC.O=[N+]([O-])[O-] [tetrabutylammonium nitrate] + CC#N
[2]
Conditions	mass density [kg/m3]	speed of sound [m/s]
m1 = 0.02174	781.56	1272.7
m1 = 0.04144	785.96	1273.7
m1 = 0.06482	791.21	1275.2
m1 = 0.08753	796.37	1276.6
m1 = 0.1139	802.45	1279.3

CCCC[N+](CCCC)(CCCC)CCCC.[O-][Cl+3]([O-])([O-])[O-] [tetrabutylammonium perchlorate] + CC#N
[2]
Conditions	mass density [kg/m3]	speed of sound [m/s]
m1 = 0.02616	783.32	1272.4
m1 = 0.04068	786.97	1273.2
m1 = 0.06312	792.62	1275.2
m1 = 0.09762	801.31	1276.8
m1 = 0.1502	814.61	1278.2

O=[N+]([O-])[O-].[Ag+] [silver nitrate] + CC#N
[2]
Conditions	mass density [kg/m3]	speed of sound [m/s]
m1 = 0.0283	785.04	1272
m1 = 0.04474	789.86	1273.5
m1 = 0.06947	797.11	1275.3
m1 = 0.09727	805.38	1277.7
m1 = 0.1285	814.46	1279.5

CC#N [acetonitrile]
[1]
Conditions	mass density [kg/m3]	viscosity [mPa·s]
–	776.85	0.341
